Assay results reported in ChEMBL document CHEMBL5244219, “Recent developments of quinolone-based derivatives and their activities against Escherichia coli” (Eur J Med Chem, 2018).
≈ marks a conversion by molar mass, not a printed value.

Assays:
[1] = system: Escherichia coli; assay: Antibacterial activity against Escherichia coli DC0 assessed as bacterial growth inhibition by agar dilution method; format: functional
[2] = system: Escherichia coli; assay: Antibacterial activity against Escherichia coli DC2 assessed as bacterial growth inhibition by agar dilution method; format: functional
[3] = Half life in marmoset at 3 mg/kg, iv; format: ADME, organism-based; conditions: callitrichinae sp., in vivo
[4] = AUC in marmoset at 3 mg/kg, iv; format: ADME, organism-based; design: dose 3 mg/kg, route iv; conditions: callitrichinae sp., in vivo
[5] = system: Escherichia coli; assay: Potency index, ratio of ceftazidime MIC to compound IC50 for antibacterial activity against Escherichia coli DC0; format: functional
[6] = system: Escherichia coli; assay: Potency index, ratio of ceftazidime MIC to compound IC50 for antibacterial activity against Escherichia coli DC2; format: functional
[7] = Protein binding in marmoset plasma; format: ADME, cell-free, Callithrix jacchus; conditions: read-out: PPB (converted)
[8] = system: Escherichia coli; assay: Antibacterial activity against Escherichia coli ATCC 700603 assessed as bacterial growth inhibition by agar dilution method; format: functional
[9] = system: Escherichia coli; assay: Potency index, ratio of norfloxacin MIC to compound IC50 for antibacterial activity against Escherichia coli ATCC 700603; format: functional
[10] = system: Escherichia coli; assay: Potency index, ratio of ciprofloxacin MIC to compound IC50 for antibacterial activity against Escherichia coli ATCC 700603; format: functional
[11] = system: Escherichia coli; assay: Potency index, ratio of clinafloxacin MIC to compound IC50 for antibacterial activity against Escherichia coli ATCC 700603; format: functional
[12] = system: Escherichia coli; assay: Potency index, ratio of chloromycin MIC to compound IC50 for antibacterial activity against Escherichia coli ATCC 700603; format: functional
[13] = system: Escherichia coli; assay: Antibacterial activity against Escherichia coli assessed as bacterial growth inhibition measured after 18 hrs by two-fold serial dilution method; format: functional
[14] = system: Escherichia coli; assay: Antibacterial activity against Escherichia coli assessed as bacterial growth inhibition; format: functional
[15] = system: Escherichia coli; assay: In vivo antibacterial activity against Escherichia coli infected in sc dosed CD-1 mouse assessed as bacterial growth inhibition; format: functional; conditions: read-out: PD50
[16] = system: Escherichia coli; assay: In vivo antibacterial activity against Escherichia coli infected in po dosed CD-1 mouse assessed as bacterial growth inhibition; format: functional; conditions: read-out: PD50
[17] = system: Escherichia coli; assay: Antibacterial activity against Escherichia coli ATCC 25922 infected in iv dosed mouse assessed as bacterial growth inhibition; format: functional
[18] = system: Escherichia coli; assay: Antibacterial activity against Escherichia coli ATCC 25922 infected in iv dosed rat assessed as log reduction in bacterial count in lung homogenate at 5 mg/kg; format: functional
[19] = system: Escherichia coli; assay: Antibacterial activity against Escherichia coli ATCC 8739 assessed as bacterial growth inhibition by agar dilution method; format: functional
[20] = system: Escherichia coli; assay: Antibacterial activity against nalidixic acid resistant Escherichia coli assessed as bacterial growth inhibition; format: functional
[21] = system: Escherichia coli; assay: Antibacterial activity against Escherichia coli KC-14 infected in po dosed mouse assessed as bacterial growth inhibition; format: functional; conditions: Escherichia coli, KC-14, po, read-out: ED50
[22] = Acute toxicity in iv dosed mouse assessed as lethal dose; format: organism-based; conditions: in vivo

What does the source list for `CCn1cc(C(=O)NCC2=C(C(=O)O)N3C(=O)[C@@H](NC(=O)/C(=N\OC(C)(C)C(=O)O)c4csc(N)n4)C3SC2)c(=O)c2cc(O)c(O)cc21` (stereo in doubt)?
MIC [1]: 8 ng/mL (≈ 0.0112 µM); MIC [2]: 8 ng/mL (≈ 0.0112 µM); half-life [3]: 3.47 h; AUC [4]: 238 µg·h/mL; Ratio [5]: 8; Ratio [6]: 8; fraction unbound [7]: 0.008

Which MIC [8] does the source give for `Cc1nc(N2CCOCC2)c([N+](=O)[O-])n1CC(O)CNC1CCN(c2c(F)cc3c(=O)c(C(=O)O)cn(C4CC4)c3c2Cl)C1` (configuration not stated) here?
Its MIC is 500 ng/mL (≈ 0.789 µM).

What about the Ratio [9] of the same molecule?
The Ratio was 2.

And the Ratio [10]?
Its Ratio is 2.

What about the Ratio [11] of the same molecule?
Its Ratio is 2.

What about the Ratio [12] of the same molecule?
Its Ratio is 2.

For `CC(C)(CF)n1cc(C(=O)O)c(=O)c2cc(F)c(N3CC[C@H](N)C3)cc21`, which MIC [13] is on record?
Its MIC is 2 ng/mL (≈ 0.00547 µM).

For `CCn1cc(C(=O)O)c(=O)c2cc(F)c(N3CCC4(CCN(C)C4)C3)cc21` (configuration not stated), which MIC [14] is on record?
The MIC was 6 ng/mL (≈ 0.0161 µM).

What about the ED50 [15] of the same molecule?
The ED50 was 8.4 mg/kg.

And the ED50 [16]?
The ED50 was 3.4 mg/kg.

With `CN1CCN(c2cc3c(cc2F)c(=O)c(C(=O)O)cn3-c2ccc(OP(=O)(O)O)cc2)CC1` as the molecule, how does the ED50 [17] read?
The ED50 was 0.74 mg/kg.

What about the “log(activity)” value [18] of the same molecule?
Its value is 2.

For `CCn1cc(C(=O)O)c(=O)c2cc(F)c(N3CCN(CC(=O)c4ccoc4)CC3)cc21`, which MIC [19] is on record?
The MIC was 49 ng/mL (≈ 0.115 µM).

With `CN1CCN(c2c(F)cc3c(=O)c(C(=O)O)c4scc5n4c3c2OC5)CC1` as the molecule, how does the MIC [20] read?
The MIC was 200 ng/mL (≈ 0.514 µM).

What about the ED50 [21] of the same molecule?
The ED50 was 1.01 mg/kg.

And the LD50 [22]?
Its LD50 is 237 mg/kg.
